The values below come from article PMC6154636, “Using UPLC-MS/MS for Characterization of Active Components in Extracts of Yupingfeng and Application to a Comparative Pharmacokinetic Study in Rat Plasma after Oral Administration” (Molecules : A Journal of Synthetic Chemistry and Natural …, 2017).

Read-outs that look alike come from different tables or passages of the source.

The nature of series [1]: Stability of the seven analytes in rat plasma (method validation). It counts as in vitro ADME. Particulars: n = 6; for Short-Term RSD: auto-sampler vials for 24 h; for Freeze-Thaw RSD: three freeze–thaw cycles; for Long-Term RSD: −20 °C for 30 days. On the procedure:
Stability The short-term and long-term stability of seven analytes in rat plasma in auto-sampler vials for 24 h, at −20 °C for 30 days and after three freeze–thaw cycles was assessed, and also carried out in six replicates samples at three QC levels (low, medium and high).
Stability: The analytes would be considered stable when the accuracy bias was within ±15% of the nominal concentrations (or ±20% for LLOQ).

A short description of series [2]: Pharmacokinetic study in rats after oral administration of mix standard solution (UPLC-QqQ-MS of plasma). The series is classed as in vivo, Sprague-Dawley rats. On the procedure: Then, 300 μL acetonitrile for protein precipitation were added. For the incurred samples, 10 µL of methanol (volume of the corresponding standard solution for calibration curve) and 90 μL of samples with 300 μL acetonitrile were mixed, the mixture was then vortex-extracted for 2 min, and centrifuged for 10 min at 15,000 rpm (4 °C). The supernatant was transferred to a new tube and evaporated under a gentle stream of nitrogen to dryness. The residue was reconstituted with 80 μL of initial mobile phase, vortex-mixed for 1 min and centrifuged at 15,000 rpm for 5 min.
The Chromatographic UPLC-QqQ-MS procedure of pharmacokinetics study was performed using ACQUITY UPLC (Waters, Milford, MA, USA) and SCIEX SelexION Triple Quad™ 5500 System (AB Sciex, Framingham, MA, USA) equipped with a heated electrospray ionization source (ESI) interface, separation was achieved using a Waters BEH C18 column (2.1 mm × 100 mm, 1.7 μm) which was protected by an online filter, the mobile phase was at a flow rate of 0.5 mL/min, consisted of aqueous solvent A: water–acetic acid (1000:1, v/v) and organic phase solvent B: acetonitrile. A 10-min binary gradient elution was performed for the separation, and the consecutive program was as follows: an isocratic elution of 5% solvent B to equilibrate the column, then followed by a linear gradient elution: 0–2.5 min, 5–27% B; 2.5–3.1 min, 27–36% B; 3.1–4.1 min, 36–57% B; 4.1–4.8 min, 57–84% B; 4.8–5.8 min, 84–100% B; 5.8–7 min, 100–100% B; 7–8 min, 100–5% B; and the re-equilibration time of gradient elution was 2 min. The column and auto-sampler tray temperature were maintained constantly at 45 °C and 4 °C, respectively. The injection volume was 10 μL. The electrospray ionization source was operated in positive mode. Quantitation was performed by schedule multiple reactions monitoring (sMRM). In the positive mode, the tandem mass spectrometry (MS/MS) typical instrumental conditions were: ion spray voltage 5.5 kV, ion source gas 150 psi, ion source gas 250 psi, temperature 500 °C, and curtain gas 38 psi. Data acquisition and processing were performed using Analyst Software (AB Sciex, Corp., Framingham, MA, USA).
The developed UPLC-QqQ-MS method was applied to a pharmacokinetic study of seven analytes in rat plasma. Male healthy adult Sprague-Dawley rats (n = 6, 200 ± 20 g body weight) were supplied by Shanghai Jiao Tong University Laboratory Animal Centre (Shanghai, China). Animals were acclimatized in an environmental controlled breeding room with standard laboratory food and water for one week prior to the experiments. All the rats were fasted for 12 h, with free access to water prior to the experiments, animal welfare and experimental procedures conformed to guidance for the care and use of laboratory animals, similarly the ethical regulations of SJTU.
Then immediately centrifuged at 4000 rpm for 5 minutes, plasma was transferred into another via and stored at −80 °C until assay.
The plasma concentrations of seven analytes at different time points are described as the mean ± s.d. The concentration versus time curve was plotted. Compartmental model was chosen to calculate all the related pharmacokinetic parameters including Cmax (ng/mL), Tmax (h), AUC0−∞ (ng·h/mL), CL/F (L/h.kg), T1/2α (h) and T1/2β (h) were calculated by Kinetica4.4 software (Thermo Fisher Scientific™, Corp., Waltham, MA, USA), and performed with GraphPad 6 (GraphPad Software, Inc., La Jolla, CA, USA). We also use the area under the plasma concentration–time curve from zero to infinity (AUC0−∞) as the weighting factor to make an integrated pharmacokinetic curve. […]

The conditions of series [3]: cited from earlier work.
Where [4] appears, read: high QC level (80.0 or 150 ng/mL).
The mark [5] stands for this setting: low QC level (0.25, 0.50 or 1.50 ng/mL).
The mark [6] stands for this setting: medium QC level (1.50, 3.50 or 15.0 ng/mL).
Where [7] appears, read: male, Sprague-Dawley, rat, in vivo, po, 10 mg/kg.
[8] abbreviates: after oral administration (10 mg/kg).
[9] abbreviates: male, Sprague-Dawley, rat, in vivo, po, 10 mg/kg, rats, oral 10 mg/kg mix standard in 0.5% CMC-Na, n = 6, Mean ± S.D., read-out: Tmax.
Where [10] appears, read: male, Sprague-Dawley, rat, in vivo, Table 8, mean, after oral administration (10 mg/kg), read-out: AUC0−∞.
[11] abbreviates: male, Sprague-Dawley, rat, in vivo, rats, oral 10 mg/kg mix standard in 0.5% CMC-Na, n = 6, Mean ± S.D., compartmental model, read-out: Cmax.
Setting [12] is: male, Sprague-Dawley, rat, in vivo, rats, oral 10 mg/kg mix standard in 0.5% CMC-Na, n = 6, Mean ± S.D., read-out: CL/F (converted).
The mark [13] stands for this setting: male, Sprague-Dawley, rat, in vivo, rats, oral 10 mg/kg mix standard in 0.5% CMC-Na, n = 6, Mean ± S.D., read-out: T1/2β (converted).
[14] abbreviates: rats, oral 10 mg/kg mix standard in 0.5% CMC-Na, n = 6, Mean ± S.D., 10 mg/kg.

In the case of `COc1ccc(-c2coc3cc(O)ccc3c2=O)cc1O` [Calycosin], in series [1] (setting [4]), the “Short-Term RSD” value worked out at 4.38%, the “Freeze-Thaw RSD” value is listed as 12.92% and the “Long-Term RSD” value worked out at 12.67%. In series [1] (setting [5]), the “Short-Term RSD” value was found to be 4.18%, the “Freeze-Thaw RSD” value is 8.29% and the “Long-Term RSD” value is listed as 4.13%. Further, in series [1] (setting [6]), the “Short-Term RSD” value turned out to be 2.20%, the “Freeze-Thaw RSD” value amounted to 6.08% and the “Long-Term RSD” value came out at 10.35%. In series [2] (setting [7]), this molecule showed an AUC(0-inf) of 11.5 ng·h/mL, a CL/F of 8330 mL/min/kg, a Cmax of 6.3 ± 2.5 ng/mL and a T1/2α of 0.27 ± 0.10 h. Also, in series [2] (setting [7]), the Tmax stood at 0.3 ± 0.1 h, the half-life is 1.09 ± 0.36 h and the “weighting coefficient ωj (AUC0−∞ of single analyte / total AUC0−∞ of analytes)” value was found to be 0.016.
For the molecule `CC(C)(O)C1CCC(C)(C2C(O)CC3(C)C4CC(OC5OC(CO)C(O)C(O)C5O)C5C(C)(C)C(OC6OCC(O)C(O)C6O)CCC56CC46CCC23C)O1` (stereo not shown) [Astragaloside], the bioavailability entry in series [3] (stated as a known characteristic, no reference given) is on record as “low”. The “Short-Term RSD” value in series [1] (setting [4]) is listed as 1.45%; in series [1] (setting [5]), 7.06%; in series [1] (setting [6]), 1.06%. For the same molecule, the “Freeze-Thaw RSD” value is 11.51% in series [1] (setting [4]), 3.65% in series [1] (setting [5]) and 3.20% in series [1] (setting [6]). Besides, the “Long-Term RSD” value amounted to 2.80% in series [1] (setting [4]), 3.36% in series [1] (setting [5]) and 8.08% in series [1] (setting [6]). Also, the “weighting coefficient ωj (AUC0−∞ of single analyte / total AUC0−∞ of analytes)” value in series [2] (setting [8]) worked out at 0.269. Further, the Tmax in series [2] (setting [9]) turned out to be 2.8 ± 0.1 h. The AUC(0-inf) in series [2] (setting [10]) was found to be 191 ng·h/mL. For the same molecule, the Cmax in series [2] (setting [11]) came to 26.6 ± 4 ng/mL. In addition, the CL/F in series [2] (setting [12]) was 832 mL/min/kg. Also, the half-life in series [2] (setting [13]) was 2.06 ± 0.04 h. Also, in series [2] (rats, oral 10 mg/kg mix standard in 0.5% CMC-Na, n = 6, Mean ± S.D.), the T1/2α is 1.98 ± 0.11 h.
Turning to `Cc1cc(=O)c2c(O)c3c(cc2o1)OC(C)(C)[C@@H](O[C@@H]1O[C@H](CO)[C@@H](O)[C@H](O)[C@H]1O)C3` [Sec-O-Glucosylhamaudol], in series [1] (setting [4]), the “Short-Term RSD” value is reported as 1.01%, the “Freeze-Thaw RSD” value was determined as 9.64% and the “Long-Term RSD” value came to 1.46%. Besides, in series [1] (setting [5]), the “Short-Term RSD” value was 2.75%, the “Freeze-Thaw RSD” value turned out to be 4.77% and the “Long-Term RSD” value came to 3.70%. In series [1] (setting [6]), the “Short-Term RSD” value stood at 1.40%, the “Freeze-Thaw RSD” value amounted to 3.73% and the “Long-Term RSD” value worked out at 3.11%. Besides, in series [2] (rat, in vivo, po, 10 mg/kg), the T1/2α is reported as 1.10 ± 0.26 h, the T1/2β worked out at 2.4 ± 1.2 min and the “weighting coefficient ωj (AUC0−∞ of single analyte / total AUC0−∞ of analytes)” value was 0.379.
In the case of `COc1ccc(-c2coc3cc(O)ccc3c2=O)cc1` [Formononetin], the figures for the “Short-Term RSD” value in series [1] (setting [4]), in series [1] (setting [5]) and in series [1] (setting [6]) were 2.82%, 2.35% and 2.33%, respectively. For the same molecule, the “Freeze-Thaw RSD” value was found to be 10.58% in series [1] (setting [4]), 10.06% in series [1] (setting [5]) and 7.09% in series [1] (setting [6]). Besides, the results for the “Long-Term RSD” value in series [1] (setting [4]), in series [1] (setting [5]) and in series [1] (setting [6]) were 6.22%, 5.96% and 7.75%, respectively. For the same molecule, the “weighting coefficient ωj (AUC0−∞ of single analyte / total AUC0−∞ of analytes)” value in series [2] (setting [8]) is 0.159. The time of peak concentration (Tmax) in series [2] (setting [9]) turned out to be 1.65 h; in series [2] (setting [14]) it was 1.6 ± 0.9 h. For the same molecule, the AUC(0-inf) in series [2] (setting [10]) came out at 113 ng·h/mL. Further, the Cmax in series [2] (setting [11]) was 13.9 ± 4.2 ng/mL. Moreover, the CL/F in series [2] (setting [12]) is 1530 mL/min/kg. For the same molecule, the half-life in series [2] (setting [13]) is 4.1 ± 2.6 h. Also, the T1/2α in series [2] (setting [14]) was found to be 1.77 ± 0.81 h; in series [2] (rats, oral 10 mg/kg mix standard in 0.5% CMC-Na, n = 6, Mean ± S.D., listed as formononetin, 10 mg/kg), 1.77 h.
In the case of `C=C1CCC[C@]2(C)C[C@@H]3OC(=O)C(C)=C3C[C@@H]12` [Atractylenolide II], in series [3], the biliary excretion result was “rapid” and the intestinal absorption entry was “poor”. In series [2] (setting [7]), this molecule showed an AUC(0-inf) of 17.9 ng·h/mL, a CL/F of 9820 mL/min/kg, a Cmax of 8.4 ± 2.4 ng/mL and a T1/2α of 0.04 ± 0.01 h. In addition, in series [2] (setting [7]), the Tmax turned out to be 0.1 ± 0.1 h, the half-life is 4.1 ± 1.56 h and the “weighting coefficient ωj (AUC0−∞ of single analyte / total AUC0−∞ of analytes)” value worked out at 0.025.
In the case of `COc1c2c(cc3oc(C)cc(=O)c13)OC(C(C)(C)OC1OC(CO)C(O)C(O)C1O)C2` [4-O-beta-D-glucosyl-5-O-methylvisamminol], in series [1] (setting [4]), the “Short-Term RSD” value was determined as 1.02%, the “Freeze-Thaw RSD” value came out at 8.53% and the “Long-Term RSD” value is reported as 2.41%. Further, in series [1] (setting [5]), the “Short-Term RSD” value came to 3.89%, the “Freeze-Thaw RSD” value is reported as 2.40% and the “Long-Term RSD” value was 3.99%. In series [1] (setting [6]), the “Short-Term RSD” value is listed as 1.35%, the “Freeze-Thaw RSD” value was 1.40% and the “Long-Term RSD” value stood at 7.52%. In series [2] (setting [7]), this molecule showed an AUC(0-inf) of 60.8 ng·h/mL, a CL/F of 2810 mL/min/kg, a Cmax of 50 ± 7.6 ng/mL and a T1/2α of 0.16 ± 0.01 h. Also, in series [2] (setting [7]), the Tmax was determined as 0.2 ± 0.01 h, the half-life was 2.4 ± 1.1 h and the “weighting coefficient ωj (AUC0−∞ of single analyte / total AUC0−∞ of analytes)” value worked out at 0.085.

As usually defined, the Cmax is the peak of the concentration-time curve. What is called Tmax is the time from dosing to the highest level.
